Data from publication PMC12090182, “Repurposing of the RIPK1-Selective Benzo[1,4]oxazepin-4-one Scaffold for the Development of a Type III LIMK1/2 Inhibitor” (ACS Chemical Biology, 2025).

Experiments:
Test in all cases: biochemical
Format in all cases: binding
[1] = target: 468 kinases including some pathogenic mutants (Homo sapiens, UniProt Q15831); details: LKB1 (Entrez STK11), 100 nM; read-out: Percent Control
[2] = target: 468 kinases including some pathogenic mutants (Homo sapiens, UniProt P0C264); details: SgK110 (Entrez SgK110), 1000 nM; read-out: Percent Control
[3] = target: 468 kinases including some pathogenic mutants (Homo sapiens, UniProt P37023); details: ACVRL1 (Entrez ACVRL1), 100 nM; read-out: Percent Control
[4] = target: 468 kinases including some pathogenic mutants (Homo sapiens, UniProt Q9UEW8); details: STK39 (Entrez STK39), 100 nM; read-out: Percent Control
[5] = target: 468 kinases including some pathogenic mutants (Homo sapiens, UniProt Q00537); details: PCTK2 (Entrez CDK17), 100 nM; read-out: Percent Control
[6] = target: 468 kinases including some pathogenic mutants (Homo sapiens, UniProt Q9HC98); details: NEK6 (Entrez NEK6), 1000 nM; read-out: Percent Control
Chain of 468 kinases including some pathogenic mutants (Homo sapiens, UniProt Q9HC98) (Q9HC98 whole entry, change not shown): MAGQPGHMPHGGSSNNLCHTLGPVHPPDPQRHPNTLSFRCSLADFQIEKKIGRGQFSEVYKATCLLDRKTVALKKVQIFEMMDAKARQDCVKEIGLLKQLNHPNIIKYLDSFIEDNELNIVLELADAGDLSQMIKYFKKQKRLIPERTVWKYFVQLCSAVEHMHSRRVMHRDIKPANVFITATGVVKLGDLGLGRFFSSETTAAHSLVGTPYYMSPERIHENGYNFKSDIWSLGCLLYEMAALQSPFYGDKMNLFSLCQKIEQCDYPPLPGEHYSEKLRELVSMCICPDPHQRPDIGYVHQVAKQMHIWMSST

[7] = target: 468 kinases including some pathogenic mutants (Homo sapiens, UniProt Q13233); details: MAP3K1 (Entrez MAP3K1), 1000 nM; read-out: Percent Control
Chain of 468 kinases including some pathogenic mutants (Homo sapiens, UniProt Q13233) (Q13233 whole entry, change not shown): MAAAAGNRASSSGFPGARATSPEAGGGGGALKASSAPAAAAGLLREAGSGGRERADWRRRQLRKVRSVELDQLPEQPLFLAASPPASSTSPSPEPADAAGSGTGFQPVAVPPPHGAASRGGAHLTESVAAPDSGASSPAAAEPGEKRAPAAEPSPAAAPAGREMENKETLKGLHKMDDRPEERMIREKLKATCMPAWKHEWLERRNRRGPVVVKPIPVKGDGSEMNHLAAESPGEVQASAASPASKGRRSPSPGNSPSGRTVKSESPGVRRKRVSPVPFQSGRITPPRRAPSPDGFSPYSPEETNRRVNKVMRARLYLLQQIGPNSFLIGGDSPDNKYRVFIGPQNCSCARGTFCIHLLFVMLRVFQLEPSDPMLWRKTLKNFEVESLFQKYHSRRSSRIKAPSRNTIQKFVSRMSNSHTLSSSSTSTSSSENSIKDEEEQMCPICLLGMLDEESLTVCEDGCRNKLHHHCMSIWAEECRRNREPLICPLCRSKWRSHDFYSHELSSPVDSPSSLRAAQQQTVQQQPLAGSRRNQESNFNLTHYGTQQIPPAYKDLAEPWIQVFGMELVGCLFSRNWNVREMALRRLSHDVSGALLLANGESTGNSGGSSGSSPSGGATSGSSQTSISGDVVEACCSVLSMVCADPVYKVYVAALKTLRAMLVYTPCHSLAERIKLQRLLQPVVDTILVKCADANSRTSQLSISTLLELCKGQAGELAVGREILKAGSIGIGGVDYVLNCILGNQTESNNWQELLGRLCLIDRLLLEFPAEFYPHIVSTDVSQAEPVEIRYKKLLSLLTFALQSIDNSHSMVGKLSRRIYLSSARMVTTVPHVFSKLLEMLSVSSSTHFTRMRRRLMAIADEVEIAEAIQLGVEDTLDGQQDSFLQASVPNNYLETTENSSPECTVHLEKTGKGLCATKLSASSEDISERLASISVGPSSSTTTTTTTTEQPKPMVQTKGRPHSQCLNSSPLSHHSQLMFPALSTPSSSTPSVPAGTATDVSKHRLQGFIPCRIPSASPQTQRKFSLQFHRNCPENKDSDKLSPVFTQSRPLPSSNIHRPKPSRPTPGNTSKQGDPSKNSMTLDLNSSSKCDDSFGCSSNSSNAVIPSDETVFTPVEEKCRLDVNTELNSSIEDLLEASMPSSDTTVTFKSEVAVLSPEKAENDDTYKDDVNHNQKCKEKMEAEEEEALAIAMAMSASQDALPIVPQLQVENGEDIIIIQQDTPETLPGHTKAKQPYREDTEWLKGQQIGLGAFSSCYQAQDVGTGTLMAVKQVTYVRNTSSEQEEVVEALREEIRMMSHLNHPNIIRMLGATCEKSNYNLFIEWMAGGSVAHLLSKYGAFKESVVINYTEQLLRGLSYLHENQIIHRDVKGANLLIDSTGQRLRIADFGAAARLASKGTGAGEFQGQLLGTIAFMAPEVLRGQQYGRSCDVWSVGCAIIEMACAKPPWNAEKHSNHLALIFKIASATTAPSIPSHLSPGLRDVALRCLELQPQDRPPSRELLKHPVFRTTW

[8] = target: 468 kinases including some pathogenic mutants (Homo sapiens, UniProt P31749); details: AKT1 (Entrez AKT1), 100 nM; read-out: Percent Control
[9] = target: 468 kinases including some pathogenic mutants (Homo sapiens, UniProt Q9BXA7); details: TSSK1B (Entrez TSSK1B), 100 nM; read-out: Percent Control
[10] = target: 468 kinases including some pathogenic mutants (Homo sapiens, UniProt P11309); details: PIM1 (Entrez PIM1), 100 nM; read-out: Percent Control
[11] = target: 468 kinases including some pathogenic mutants (Homo sapiens, UniProt P30291); details: WEE1 (Entrez WEE1), 100 nM; read-out: Percent Control
[12] = target: 468 kinases including some pathogenic mutants (Homo sapiens, UniProt P06241); details: FYN (Entrez FYN), 100 nM; read-out: Percent Control
[13] = target: 468 kinases including some pathogenic mutants (Homo sapiens, UniProt P52564); details: MEK6 (Entrez MAP2K6), 1000 nM; read-out: Percent Control
Chain of 468 kinases including some pathogenic mutants (Homo sapiens, UniProt P52564) (P52564 whole entry, change not shown): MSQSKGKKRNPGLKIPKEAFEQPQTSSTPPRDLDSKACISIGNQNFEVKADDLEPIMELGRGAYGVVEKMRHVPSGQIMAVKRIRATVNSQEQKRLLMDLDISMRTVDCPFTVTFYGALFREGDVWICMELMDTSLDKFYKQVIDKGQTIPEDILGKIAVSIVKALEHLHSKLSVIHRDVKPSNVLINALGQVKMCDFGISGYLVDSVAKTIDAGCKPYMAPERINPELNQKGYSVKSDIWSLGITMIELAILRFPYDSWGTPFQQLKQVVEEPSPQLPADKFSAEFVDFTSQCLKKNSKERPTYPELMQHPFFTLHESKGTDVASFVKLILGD

[14] = target: 468 kinases including some pathogenic mutants (Homo sapiens, UniProt Q9BZL6); details: PRKD2 (Entrez PRKD2), 100 nM; read-out: Percent Control
[15] = target: 468 kinases including some pathogenic mutants (Homo sapiens, UniProt P23443); details: S6K1 (Entrez RPS6KB1), 1000 nM; read-out: Percent Control
Chain of 468 kinases including some pathogenic mutants (Homo sapiens, UniProt P23443) (P23443 whole entry, change not shown): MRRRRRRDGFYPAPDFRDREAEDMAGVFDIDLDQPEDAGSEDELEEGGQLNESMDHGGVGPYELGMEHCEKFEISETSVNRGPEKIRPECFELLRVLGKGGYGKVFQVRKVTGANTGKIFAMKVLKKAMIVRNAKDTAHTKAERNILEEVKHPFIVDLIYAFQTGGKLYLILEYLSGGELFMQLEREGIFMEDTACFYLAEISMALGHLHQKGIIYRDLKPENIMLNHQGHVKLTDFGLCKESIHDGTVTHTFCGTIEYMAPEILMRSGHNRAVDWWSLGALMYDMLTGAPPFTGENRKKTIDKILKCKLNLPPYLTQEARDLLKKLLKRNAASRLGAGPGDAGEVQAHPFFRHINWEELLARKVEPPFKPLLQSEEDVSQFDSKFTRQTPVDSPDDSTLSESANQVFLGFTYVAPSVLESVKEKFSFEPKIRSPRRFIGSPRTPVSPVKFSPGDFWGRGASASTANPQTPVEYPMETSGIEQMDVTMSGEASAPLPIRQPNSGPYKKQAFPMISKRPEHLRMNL

[16] = target: 468 kinases including some pathogenic mutants (Homo sapiens, UniProt P35916); details: FLT4 (Entrez FLT4), 100 nM; read-out: Percent Control
[17] = target: 468 kinases including some pathogenic mutants (Homo sapiens, UniProt P22694); details: PKAC-beta (Entrez PRKACB), 100 nM; read-out: Percent Control
[18] = target: 468 kinases including some pathogenic mutants (Homo sapiens, UniProt P00533, DEL752-759); details: read-out: Percent Control
[19] = target: 468 kinases including some pathogenic mutants (Homo sapiens, UniProt P00519, Y253F); details: read-out: Percent Control
[20] = target: 468 kinases including some pathogenic mutants (Homo sapiens, UniProt P07949, V804L); details: read-out: Percent Control
[21] = target: 468 kinases including some pathogenic mutants (Homo sapiens, UniProt Q02763); details: TIE2 (Entrez TEK), 1000 nM; read-out: Percent Control
Chain of 468 kinases including some pathogenic mutants (Homo sapiens, UniProt Q02763) (Q02763 23-1124, change not shown): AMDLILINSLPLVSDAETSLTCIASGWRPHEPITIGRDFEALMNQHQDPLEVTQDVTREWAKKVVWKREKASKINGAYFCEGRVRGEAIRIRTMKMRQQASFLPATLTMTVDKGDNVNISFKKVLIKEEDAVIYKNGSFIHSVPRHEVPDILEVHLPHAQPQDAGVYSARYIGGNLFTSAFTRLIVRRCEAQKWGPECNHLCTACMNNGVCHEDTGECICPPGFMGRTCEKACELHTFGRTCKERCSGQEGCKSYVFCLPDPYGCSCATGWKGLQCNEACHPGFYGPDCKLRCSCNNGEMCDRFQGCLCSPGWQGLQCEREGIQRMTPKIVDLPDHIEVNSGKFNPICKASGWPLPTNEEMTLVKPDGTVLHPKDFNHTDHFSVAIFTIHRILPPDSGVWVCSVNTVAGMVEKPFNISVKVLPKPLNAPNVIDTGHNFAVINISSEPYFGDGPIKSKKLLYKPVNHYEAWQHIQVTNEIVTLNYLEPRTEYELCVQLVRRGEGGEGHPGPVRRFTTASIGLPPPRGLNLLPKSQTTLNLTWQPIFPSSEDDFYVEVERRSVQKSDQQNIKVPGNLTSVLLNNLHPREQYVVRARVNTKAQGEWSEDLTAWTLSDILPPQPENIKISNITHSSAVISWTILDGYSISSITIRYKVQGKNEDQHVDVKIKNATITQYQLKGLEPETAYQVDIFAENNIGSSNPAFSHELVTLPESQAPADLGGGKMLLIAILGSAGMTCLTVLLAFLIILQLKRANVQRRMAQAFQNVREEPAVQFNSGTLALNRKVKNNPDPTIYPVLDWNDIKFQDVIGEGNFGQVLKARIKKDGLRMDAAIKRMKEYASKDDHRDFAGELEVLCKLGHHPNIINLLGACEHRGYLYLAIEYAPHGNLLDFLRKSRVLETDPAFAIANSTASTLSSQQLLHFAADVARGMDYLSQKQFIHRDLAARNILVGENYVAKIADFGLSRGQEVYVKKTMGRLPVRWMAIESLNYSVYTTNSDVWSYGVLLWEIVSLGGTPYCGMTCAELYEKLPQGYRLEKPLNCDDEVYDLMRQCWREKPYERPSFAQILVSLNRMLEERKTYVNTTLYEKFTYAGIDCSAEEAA

[22] = target: 468 kinases including some pathogenic mutants (Homo sapiens, UniProt P54756); details: EPHA5 (Entrez EPHA5), 100 nM; read-out: Percent Control
[23] = target: 468 kinases including some pathogenic mutants (Homo sapiens, UniProt Q9H3Y6); details: SRMS (Entrez SRMS), 1000 nM; read-out: Percent Control
[24] = target: 468 kinases including some pathogenic mutants (Homo sapiens, UniProt Q9HCP0); details: CSNK1G1 (Entrez CSNK1G1), 100 nM; read-out: Percent Control
Chain of 468 kinases including some pathogenic mutants (Homo sapiens, UniProt Q9HCP0) (Q9HCP0 whole entry, change not shown): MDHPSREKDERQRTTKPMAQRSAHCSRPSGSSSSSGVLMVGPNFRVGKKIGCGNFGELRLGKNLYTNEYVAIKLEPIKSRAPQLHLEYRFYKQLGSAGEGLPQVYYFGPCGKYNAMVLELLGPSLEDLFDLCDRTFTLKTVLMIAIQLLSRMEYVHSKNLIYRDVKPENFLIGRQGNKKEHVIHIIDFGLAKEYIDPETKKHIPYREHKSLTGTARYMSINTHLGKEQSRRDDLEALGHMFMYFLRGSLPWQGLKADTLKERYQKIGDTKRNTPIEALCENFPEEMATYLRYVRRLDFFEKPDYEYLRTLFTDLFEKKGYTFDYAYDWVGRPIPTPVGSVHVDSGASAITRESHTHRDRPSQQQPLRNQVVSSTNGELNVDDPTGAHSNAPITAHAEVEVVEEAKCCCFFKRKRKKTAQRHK

[25] = target: 468 kinases including some pathogenic mutants (Homo sapiens, UniProt Q16539); details: p38-alpha (Entrez MAPK14), 1000 nM; read-out: Percent Control
Chain of 468 kinases including some pathogenic mutants (Homo sapiens, UniProt Q16539) (Q16539 whole entry, stated change not applied): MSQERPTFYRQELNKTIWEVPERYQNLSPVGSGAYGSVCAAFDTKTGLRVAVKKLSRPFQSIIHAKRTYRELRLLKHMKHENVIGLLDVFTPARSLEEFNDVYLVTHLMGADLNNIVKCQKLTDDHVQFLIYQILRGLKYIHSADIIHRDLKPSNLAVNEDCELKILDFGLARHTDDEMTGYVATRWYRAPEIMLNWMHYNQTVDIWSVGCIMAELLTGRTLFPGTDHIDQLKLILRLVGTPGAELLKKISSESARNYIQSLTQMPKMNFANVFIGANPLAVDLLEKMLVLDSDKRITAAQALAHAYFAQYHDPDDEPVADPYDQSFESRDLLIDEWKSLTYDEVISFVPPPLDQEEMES

[26] = target: 468 kinases including some pathogenic mutants (Homo sapiens, UniProt P36888, R834Q); details: read-out: Percent Control
[27] = target: 468 kinases including some pathogenic mutants (Homo sapiens, UniProt P50750); details: CDK9 (Entrez CDK9), 100 nM; read-out: Percent Control
[28] = target: 468 kinases including some pathogenic mutants (Homo sapiens, UniProt Q9NYL2); details: ZAK (Entrez ZAK), 1000 nM; read-out: Percent Control
[29] = target: 468 kinases including some pathogenic mutants (Homo sapiens, UniProt P07949, V804M); details: read-out: Percent Control

Chain of 468 kinases including some pathogenic mutants (Homo sapiens, UniProt Q15831) (Q15831 whole entry, change not shown): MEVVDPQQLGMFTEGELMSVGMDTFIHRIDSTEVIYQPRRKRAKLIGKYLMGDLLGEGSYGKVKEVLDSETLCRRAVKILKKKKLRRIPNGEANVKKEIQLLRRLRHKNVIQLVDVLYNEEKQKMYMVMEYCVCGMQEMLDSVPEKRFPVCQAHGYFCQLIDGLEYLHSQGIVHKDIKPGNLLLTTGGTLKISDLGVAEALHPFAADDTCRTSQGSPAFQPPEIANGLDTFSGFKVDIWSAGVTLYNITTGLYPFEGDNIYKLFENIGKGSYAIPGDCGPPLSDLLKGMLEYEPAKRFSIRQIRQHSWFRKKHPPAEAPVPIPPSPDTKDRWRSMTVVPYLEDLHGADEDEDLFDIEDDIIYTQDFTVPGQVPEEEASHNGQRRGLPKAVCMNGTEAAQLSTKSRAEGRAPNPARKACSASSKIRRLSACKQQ

Compound: CN1C(=O)[C@@H](N2CCc3c(nn(Cc4ccccc4)c3C(N)=O)C2=O)COc2cc(Cl)ccc21 [Compound 10, (S)-2-benzyl-6-(8-chloro-5-methyl-4-oxo-2,3,4,5-tetrahydrobenzo[b][1,4]oxazepin-3-yl)-7-oxo-4,5,6,7-tetrahydro-2H-pyrazolo[3,4-c]pyridine-3-carboxamide]
- remaining activity at 0.1 µM [1]: 97%
- remaining activity at 1 µM [2]: 100%
- remaining activity at 0.1 µM [3]: 73%
- remaining activity at 0.1 µM [4]: 67%
- remaining activity at 0.1 µM [5]: 83%
- remaining activity at 1 µM [6]: 100%
- remaining activity at 1 µM [7]: 100%
- remaining activity at 0.1 µM [8]: 87%
- remaining activity at 0.1 µM [9]: 83%
- remaining activity at 0.1 µM [10]: 93%
- remaining activity at 0.1 µM [11]: 92%
- remaining activity at 0.1 µM [12]: 71%
- remaining activity at 1 µM [13]: 100%
- remaining activity at 0.1 µM [14]: 84%
- remaining activity at 1 µM [15]: 100%
- remaining activity at 0.1 µM [16]: 76%
- remaining activity at 0.1 µM [17]: 56%
- remaining activity at 0.1 µM [18]: 100%
- remaining activity at 0.1 µM [19]: 76%
- remaining activity at 1 µM [20]: 100%
- remaining activity at 1 µM [21]: 100%
- remaining activity at 0.1 µM [22]: 74%
- remaining activity at 1 µM [23]: 100%
- remaining activity at 0.1 µM [24]: 80%
- remaining activity at 1 µM [25]: 100%
- remaining activity at 0.1 µM [26]: 81%
- remaining activity at 0.1 µM [27]: 92%
- remaining activity at 1 µM [28]: 100%
- remaining activity at 0.1 µM [29]: 87%
